Values of other authors, collected in article PMC3792642 (Acta Crystallographica Section D: Biological Crystallography, 2013).

Tests used:
Mtb = conditions: VKOR-dependent manner; ref Dutton et al., 2010; cited from earlier work
MtbVKOR = conditions: ref Dutton et al., 2010; cited from earlier work

## CC(=O)CC(c1ccccc1)c1c(O)c2ccccc2oc1=O (centres unmarked) [warfarin]
Mtb
  Inhibition of growth of Mtb: inhibit growth of Mtb
MtbVKOR
  Inhibition of MtbVKOR: inhibit MtbVKOR
